The values below come from patent US20120028358A1, “METHOD FOR INCREASING RETROVIRAL INFECTIVITY” (priority 2010, published 2012).

For the assay, the system named is rat PMVEC. The assay can be described thus: Gamma-retroviral infection efficiency of PMVEC (percent fluorescent cells by FACS). The class given is cell-based. To be noted: 1 μmol/L; MMLV with ecotropic, amphotropic, VSV-G pantropic envelope. As to the method:
Cell cultures: Phoenix Retroviral Expression System ecotropic and amphotropic packaging cells were purchased from Orbigen, Inc. (San Diego, Calif.). […] Rat pulmonary microvascular endothelial cells (PMVEC), were obtained from our cell culture core at the University of South Alabama (King J, et al. Structural and functional characteristics of lung macro and microvascular endothelial phenotypes. Microvascular Res. 2004, March, 67(2). 139-151). Human glioblastoma cells (U87MG), and human mammary carcinoma cells (T47D) were obtained from ATCC. All cells were cultured in DMEM, 10% FBS, 2 mmol L-Glutamine and used for experiments at passages 4-9. All cells were grown in humidified incubators at 37° C. in 5% CO2. Cells were harvested by 0.05% trypsin/0.53 mM EDTA digestion, washed, re-suspended in cultured medium and analyzed directly by FACScan in the University of South Alabama Flow Cytometry Core. For cell cycle analysis cellular DNA was stained with […] of propridium iodide for 20 minutes as described elsewhere (48) and then analyzed by FACScan.
Vectors and delivery systems: pBMN-GFP (Orbigen, Inc., San Diego, Calif.), a retroviral vector that expresses GFP driven by the MMLV's promoter in Phoenix and other cells was used. […]
In general terms: A flow cytometer gives signals particle by particle.

In the case of `CC#C[C@]1(O)CC[C@H]2[C@@H]3CCC4=CC(=O)CCC4=C3[C@@H](c3ccc(N(C)C)cc3)C[C@@]21C` [mifepristone, 11-beta-(4-dimethylaminophenyl)-17-beta-hydroxy-17-alpha-(1-propynyl)-estra-4,9-dien-3-one], the “Percentage of infected cells” value was “doubled”.
